According to ChEMBL document CHEMBL5705888, “Substrate specificity and inhibitors of LRRK2, a protein kinase mutated in Parkinson's disease” (Biochem J, 2009):

Assays:
[1] = molecular target: Ribosomal protein S6 kinase alpha-1 (Homo sapiens) (UniProt Q15418); assay: Inhibition of RSK1 (unknown origin) at 1 uM incubated for 30 mins in presence of [gamma-33P]ATP by multidrop micro reagent based assay relative to control; values are per cent of control
[2] = molecular target: T1, Inhibitor of nuclear factor kappa-B kinase subunit beta (Homo sapiens) (UniProt O14920); assay: Inhibition of IKKbeta (unknown origin) at 1 uM incubated for 30 mins in presence of [gamma-33P]ATP by multidrop micro reagent based assay relative to control; values are per cent of control
T1 sequence (whole entry): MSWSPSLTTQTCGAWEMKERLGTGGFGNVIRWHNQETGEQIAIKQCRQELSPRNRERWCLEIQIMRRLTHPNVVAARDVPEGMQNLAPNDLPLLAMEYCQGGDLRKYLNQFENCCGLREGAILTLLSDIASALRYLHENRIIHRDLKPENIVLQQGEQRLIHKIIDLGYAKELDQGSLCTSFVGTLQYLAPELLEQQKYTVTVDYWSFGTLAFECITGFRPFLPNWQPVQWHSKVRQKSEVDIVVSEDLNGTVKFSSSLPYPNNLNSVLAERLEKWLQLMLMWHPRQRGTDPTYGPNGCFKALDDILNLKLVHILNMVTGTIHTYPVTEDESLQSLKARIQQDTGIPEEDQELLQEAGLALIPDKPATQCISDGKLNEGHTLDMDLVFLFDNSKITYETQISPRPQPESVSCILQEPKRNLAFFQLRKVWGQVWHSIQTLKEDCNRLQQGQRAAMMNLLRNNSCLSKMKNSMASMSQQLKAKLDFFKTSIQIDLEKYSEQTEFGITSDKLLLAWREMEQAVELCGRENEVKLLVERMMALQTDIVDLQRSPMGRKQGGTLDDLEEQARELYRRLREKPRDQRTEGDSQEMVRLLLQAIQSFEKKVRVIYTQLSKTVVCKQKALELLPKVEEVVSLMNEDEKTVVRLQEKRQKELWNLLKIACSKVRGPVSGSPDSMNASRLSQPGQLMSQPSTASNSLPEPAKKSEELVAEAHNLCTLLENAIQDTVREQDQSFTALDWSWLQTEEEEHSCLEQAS

[3] = molecular target: Tyrosine-protein kinase Yes (Homo sapiens) (UniProt P07947); assay: Inhibition of YES1 (unknown origin) at 1 uM incubated for 30 mins in presence of [gamma-33P]ATP by multidrop micro reagent based assay relative to control; values are per cent of control
[4] = molecular target: Ribosomal protein S6 kinase alpha-5 (Homo sapiens) (UniProt O75582); assay: Inhibition of MSK1 (unknown origin) at 1 uM incubated for 30 mins in presence of [gamma-33P]ATP by multidrop micro reagent based assay relative to control; values are per cent of control
[5] = molecular target: Mitogen-activated protein kinase 3 (Homo sapiens) (UniProt P27361); assay: Inhibition of ERK1 (unknown origin) at 1 uM incubated for 30 mins in presence of [gamma-33P]ATP by multidrop micro reagent based assay relative to control; values are per cent of control
[6] = molecular target: RAC-alpha serine/threonine-protein kinase (Homo sapiens) (UniProt P31749); assay: Inhibition of PKBalpha (unknown origin) at 1 uM incubated for 30 mins in presence of [gamma-33P]ATP by multidrop micro reagent based assay relative to control; values are per cent of control
[7] = molecular target: Aurora kinase B (Homo sapiens) (UniProt Q96GD4); assay: Inhibition of Aurora B kinase (unknown origin) at 1 uM incubated for 30 mins in presence of [gamma-33P]ATP by multidrop micro reagent based assay relative to control; values are per cent of control
[8] = molecular target: Serine/threonine-protein kinase PLK1 (Homo sapiens) (UniProt P53350); assay: Inhibition of PLK1 (unknown origin) at 1 uM incubated for 30 mins in presence of [gamma-33P]ATP by multidrop micro reagent based assay relative to control; values are per cent of control
[9] = molecular target: Calcium/calmodulin-dependent protein kinase type 1 (Homo sapiens) (UniProt Q14012); assay: Inhibition of CaMK1 (unknown origin) at 1 uM incubated for 30 mins in presence of [gamma-33P]ATP by multidrop micro reagent based assay relative to control; values are per cent of control
[10] = molecular target: T2, Eukaryotic elongation factor 2 kinase (Homo sapiens) (UniProt O00418); assay: Inhibition of EF2K (unknown origin) at 1 uM incubated for 30 mins in presence of [gamma-33P]ATP by multidrop micro reagent based assay relative to control
T2 sequence (whole entry): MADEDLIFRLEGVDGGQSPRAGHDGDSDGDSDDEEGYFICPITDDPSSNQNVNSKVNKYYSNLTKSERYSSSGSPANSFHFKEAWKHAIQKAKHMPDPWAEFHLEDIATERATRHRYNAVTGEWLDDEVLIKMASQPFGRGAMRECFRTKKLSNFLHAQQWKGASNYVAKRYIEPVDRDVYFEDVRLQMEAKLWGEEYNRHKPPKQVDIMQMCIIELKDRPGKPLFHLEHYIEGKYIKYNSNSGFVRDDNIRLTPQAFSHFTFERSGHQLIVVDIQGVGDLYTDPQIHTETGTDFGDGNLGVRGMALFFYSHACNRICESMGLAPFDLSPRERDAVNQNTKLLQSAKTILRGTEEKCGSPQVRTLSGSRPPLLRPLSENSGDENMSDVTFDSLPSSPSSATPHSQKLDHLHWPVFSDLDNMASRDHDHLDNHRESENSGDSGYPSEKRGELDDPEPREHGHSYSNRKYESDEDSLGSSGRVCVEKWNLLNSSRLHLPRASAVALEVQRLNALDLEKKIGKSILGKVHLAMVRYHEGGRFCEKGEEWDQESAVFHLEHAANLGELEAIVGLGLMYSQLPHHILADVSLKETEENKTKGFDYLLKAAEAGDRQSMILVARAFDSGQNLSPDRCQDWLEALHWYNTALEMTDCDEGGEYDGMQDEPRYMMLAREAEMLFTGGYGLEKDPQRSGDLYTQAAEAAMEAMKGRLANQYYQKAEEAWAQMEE

Chain of Aurora kinase B (Homo sapiens) (Q96GD4 whole entry): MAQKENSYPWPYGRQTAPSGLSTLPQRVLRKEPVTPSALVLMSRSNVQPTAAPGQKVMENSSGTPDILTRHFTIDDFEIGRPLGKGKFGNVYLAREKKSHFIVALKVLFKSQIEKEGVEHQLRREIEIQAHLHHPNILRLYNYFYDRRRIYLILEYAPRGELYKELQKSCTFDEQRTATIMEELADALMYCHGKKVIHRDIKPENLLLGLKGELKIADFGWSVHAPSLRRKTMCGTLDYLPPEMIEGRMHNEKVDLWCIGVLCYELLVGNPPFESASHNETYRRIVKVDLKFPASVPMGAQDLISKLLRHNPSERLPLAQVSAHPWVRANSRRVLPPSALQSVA
Chain of Tyrosine-protein kinase Yes (Homo sapiens) (P07947 2-543 limits assumed): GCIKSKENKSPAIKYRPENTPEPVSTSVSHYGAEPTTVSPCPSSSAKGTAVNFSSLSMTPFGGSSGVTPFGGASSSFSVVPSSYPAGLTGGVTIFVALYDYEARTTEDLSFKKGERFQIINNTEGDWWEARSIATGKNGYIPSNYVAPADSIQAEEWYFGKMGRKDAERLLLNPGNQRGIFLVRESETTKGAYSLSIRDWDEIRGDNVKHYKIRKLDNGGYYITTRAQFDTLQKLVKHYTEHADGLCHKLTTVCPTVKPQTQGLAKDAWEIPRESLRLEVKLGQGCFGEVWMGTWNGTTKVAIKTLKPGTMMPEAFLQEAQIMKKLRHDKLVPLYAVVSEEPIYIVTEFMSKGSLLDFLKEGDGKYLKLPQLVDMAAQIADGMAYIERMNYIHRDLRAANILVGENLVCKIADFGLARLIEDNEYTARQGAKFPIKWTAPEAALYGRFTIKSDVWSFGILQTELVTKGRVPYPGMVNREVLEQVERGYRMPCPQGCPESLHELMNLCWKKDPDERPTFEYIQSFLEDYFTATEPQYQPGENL
Chain of Ribosomal protein S6 kinase alpha-5 (Homo sapiens) (O75582 whole entry, looked up): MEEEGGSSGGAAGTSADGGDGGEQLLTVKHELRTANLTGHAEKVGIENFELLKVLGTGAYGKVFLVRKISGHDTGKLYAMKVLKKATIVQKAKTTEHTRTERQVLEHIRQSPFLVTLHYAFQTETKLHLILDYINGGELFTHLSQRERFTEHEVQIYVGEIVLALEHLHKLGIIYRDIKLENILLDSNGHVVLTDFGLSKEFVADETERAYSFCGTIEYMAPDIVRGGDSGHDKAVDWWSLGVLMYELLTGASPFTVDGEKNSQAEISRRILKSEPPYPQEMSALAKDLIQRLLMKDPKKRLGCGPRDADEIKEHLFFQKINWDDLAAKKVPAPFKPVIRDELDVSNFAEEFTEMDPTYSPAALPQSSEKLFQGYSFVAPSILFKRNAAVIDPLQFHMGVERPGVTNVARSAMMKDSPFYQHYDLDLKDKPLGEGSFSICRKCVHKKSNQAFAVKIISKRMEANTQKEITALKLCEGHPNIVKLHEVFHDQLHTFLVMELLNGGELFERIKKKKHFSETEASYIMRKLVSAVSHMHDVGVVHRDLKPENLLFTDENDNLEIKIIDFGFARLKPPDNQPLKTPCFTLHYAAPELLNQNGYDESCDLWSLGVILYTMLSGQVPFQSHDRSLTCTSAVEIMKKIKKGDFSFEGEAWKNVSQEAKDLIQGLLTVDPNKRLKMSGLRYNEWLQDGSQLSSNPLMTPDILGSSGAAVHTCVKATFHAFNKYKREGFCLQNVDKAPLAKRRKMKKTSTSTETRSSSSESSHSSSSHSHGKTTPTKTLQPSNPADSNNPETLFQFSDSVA
Chain of Mitogen-activated protein kinase 3 (Homo sapiens) (P27361 whole entry): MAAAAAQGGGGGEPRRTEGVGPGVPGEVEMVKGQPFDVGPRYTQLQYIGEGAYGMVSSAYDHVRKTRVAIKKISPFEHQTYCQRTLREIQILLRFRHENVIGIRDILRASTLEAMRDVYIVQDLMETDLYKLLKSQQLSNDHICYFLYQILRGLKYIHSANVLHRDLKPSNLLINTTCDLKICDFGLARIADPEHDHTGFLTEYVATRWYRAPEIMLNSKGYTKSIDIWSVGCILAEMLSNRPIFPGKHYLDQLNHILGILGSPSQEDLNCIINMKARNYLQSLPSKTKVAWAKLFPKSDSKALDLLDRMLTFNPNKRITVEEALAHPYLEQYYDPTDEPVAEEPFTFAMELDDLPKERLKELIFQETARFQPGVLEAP
Chain of Serine/threonine-protein kinase PLK1 (Homo sapiens) (P53350 whole entry): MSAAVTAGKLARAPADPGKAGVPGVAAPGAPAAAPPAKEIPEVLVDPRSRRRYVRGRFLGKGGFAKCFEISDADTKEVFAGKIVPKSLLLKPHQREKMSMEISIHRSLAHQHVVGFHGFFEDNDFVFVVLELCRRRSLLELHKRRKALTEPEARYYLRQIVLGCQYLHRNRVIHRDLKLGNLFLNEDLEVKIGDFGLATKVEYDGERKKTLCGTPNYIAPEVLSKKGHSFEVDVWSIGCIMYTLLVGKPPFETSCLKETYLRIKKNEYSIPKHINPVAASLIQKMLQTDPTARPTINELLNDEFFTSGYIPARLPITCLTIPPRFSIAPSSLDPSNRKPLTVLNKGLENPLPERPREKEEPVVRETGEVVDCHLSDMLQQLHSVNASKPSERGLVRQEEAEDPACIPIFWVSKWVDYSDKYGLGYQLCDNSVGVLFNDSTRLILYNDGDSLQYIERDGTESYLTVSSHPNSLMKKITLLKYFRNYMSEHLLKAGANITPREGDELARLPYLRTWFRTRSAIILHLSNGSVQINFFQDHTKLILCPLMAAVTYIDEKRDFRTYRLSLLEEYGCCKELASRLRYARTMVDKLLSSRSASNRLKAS
Chain of RAC-alpha serine/threonine-protein kinase (Homo sapiens) (P31749 whole entry): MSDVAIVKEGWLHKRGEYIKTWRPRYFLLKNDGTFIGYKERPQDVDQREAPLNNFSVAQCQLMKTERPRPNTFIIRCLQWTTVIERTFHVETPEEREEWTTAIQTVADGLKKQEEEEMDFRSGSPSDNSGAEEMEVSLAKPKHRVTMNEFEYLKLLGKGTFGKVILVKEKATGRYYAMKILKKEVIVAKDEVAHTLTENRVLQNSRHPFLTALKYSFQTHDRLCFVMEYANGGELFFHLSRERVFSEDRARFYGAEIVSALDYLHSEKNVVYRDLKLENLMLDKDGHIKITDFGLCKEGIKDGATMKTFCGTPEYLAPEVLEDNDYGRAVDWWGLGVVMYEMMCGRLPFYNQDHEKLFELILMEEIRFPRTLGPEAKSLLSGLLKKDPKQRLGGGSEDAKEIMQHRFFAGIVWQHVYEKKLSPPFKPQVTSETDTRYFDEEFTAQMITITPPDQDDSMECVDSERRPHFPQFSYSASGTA
Chain of Calcium/calmodulin-dependent protein kinase type 1 (Homo sapiens) (Q14012 whole entry, looked up): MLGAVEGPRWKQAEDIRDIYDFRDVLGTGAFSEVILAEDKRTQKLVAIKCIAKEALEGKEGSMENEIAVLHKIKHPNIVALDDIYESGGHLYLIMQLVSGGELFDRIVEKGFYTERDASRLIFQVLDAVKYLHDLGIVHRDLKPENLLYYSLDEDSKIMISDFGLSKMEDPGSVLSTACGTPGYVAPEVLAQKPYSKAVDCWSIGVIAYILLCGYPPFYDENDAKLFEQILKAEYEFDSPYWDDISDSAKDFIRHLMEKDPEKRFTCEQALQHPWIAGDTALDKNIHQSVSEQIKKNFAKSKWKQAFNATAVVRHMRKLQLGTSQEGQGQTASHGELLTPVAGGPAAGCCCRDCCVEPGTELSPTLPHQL
Chain of Ribosomal protein S6 kinase alpha-1 (Homo sapiens) (Q15418 whole entry): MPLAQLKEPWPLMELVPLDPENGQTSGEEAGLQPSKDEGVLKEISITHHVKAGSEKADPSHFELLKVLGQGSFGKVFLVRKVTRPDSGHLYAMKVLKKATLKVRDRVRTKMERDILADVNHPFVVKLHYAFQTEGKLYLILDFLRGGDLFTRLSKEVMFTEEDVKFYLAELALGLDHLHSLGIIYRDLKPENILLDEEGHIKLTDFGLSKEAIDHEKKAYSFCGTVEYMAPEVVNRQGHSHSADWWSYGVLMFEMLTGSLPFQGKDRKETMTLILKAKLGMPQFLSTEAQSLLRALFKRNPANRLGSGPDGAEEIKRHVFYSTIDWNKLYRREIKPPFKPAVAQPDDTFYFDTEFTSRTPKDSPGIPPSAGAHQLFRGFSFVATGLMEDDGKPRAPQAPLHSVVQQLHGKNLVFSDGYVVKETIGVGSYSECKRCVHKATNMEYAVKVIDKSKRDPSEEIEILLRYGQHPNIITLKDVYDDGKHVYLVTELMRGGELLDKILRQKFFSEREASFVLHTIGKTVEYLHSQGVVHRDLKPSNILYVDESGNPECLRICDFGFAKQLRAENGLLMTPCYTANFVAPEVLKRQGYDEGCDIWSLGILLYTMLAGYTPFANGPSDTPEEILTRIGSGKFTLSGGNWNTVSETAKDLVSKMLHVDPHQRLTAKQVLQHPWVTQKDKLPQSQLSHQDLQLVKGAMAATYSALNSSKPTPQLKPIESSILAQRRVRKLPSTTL

Compound | residual activity [1] [%] | residual activity [2] [%] | residual activity [3] [%] | residual activity [4] [%] | residual activity [5] [%] | residual activity [6] [%] | residual activity [7] [%] | residual activity [8] [%] | residual activity [9] [%] | residual activity [10] [%]
CCn1c(-c2nonc2N)nc2cnc(Oc3cccc(NC(=O)c4ccc(OCCN5CCOCC5)cc4)c3)cc21 [GSK-269962A] | 12 | 83 | 114 | 1 | 106 | 26 | 36 | 105 | 122 | 113
Cc1cncc2cccc(S(=O)(=O)N3CCCNC[C@@H]3C)c12 | 57 | 100 | 76 | 39 | 105 | 64 | 11 | 105 | 105 | 99
CC1=C(C(=O)Nc2cc3cn[nH]c3cc2F)C(c2ccc(C(F)(F)F)cc2)CC(=O)N1 (centres undefined) | 20 | 97 | 58 | 20 | 90 | 72 | 59 | 102 | 102 | 99
CCN(CC)CCNC(=O)c1c(C)[nH]c(/C=C2\C(=O)Nc3ccc(F)cc32)c1C | 78 | – | – | 60 | – | 73 | 29 | – | – | –
